In one series the test system is A2058. Description: Cytotoxicity against human A2058 cells incubated for 24 hrs by AlamarBlue staining based analysis. It counts as functional, cell-based. Conditions: A2058, 24 h. On the technique in general: Alamar Blue is a resazurin reagent that responds to reducing activity.
A further series relates to NCI-H838. Description: Cytotoxicity against human NCI-H838 cells incubated for 24 hrs by AlamarBlue staining based analysis. It is filed as functional, cell-based. As to conditions: NCI-H838, 24 h.
Series [1] in a line: Cytotoxicity against human U87 cells incubated for 24 hrs by AlamarBlue staining based analysis. As to conditions: U-87 MG. It counts as functional, cell-based, U-87MG ATCC.
The next series relates to HepG2. Description: Cytotoxicity against human HepG2 cells incubated for 24 hrs by AlamarBlue staining based analysis. It counts as functional, cell-based. As to conditions: HepG2, 24 h.
The subject of series [2] is SARS-CoV-2. Description: Antiviral activity against SARS-COV2 EPI_ISL_1172022 infected in african green monkey Vero E6 cells assessed as log reduction in viable virus at 12.5 uM incubated for 48 hrs by RT-qPCR analysis. It counts as functional, Severe acute respiratory syndrome coronavirus 2. On the technique in general: In qPCR the cycle at which signal appears reflects the starting amount.

The test system of another series is Calu-1. The experiment in a line: Cytotoxicity against human Calu-1 cells incubated for 24 hrs by AlamarBlue staining based analysis. It counts as functional, cell-based. As to conditions: Calu-1, 24 h.
The next series relates to BGC-823. The experiment in a line: Cytotoxicity against human BGC-823 cells assessed as reduction in cell viability measured after 4 days by MTT colorimetric assay. It counts as functional, cell-based. As to conditions: BGC-823, 96 h. In general terms: Formazan colour is commonly taken as a measure of viable cells.
In series [3] the test system is SARS-CoV-2. The experiment in a line: Antiviral activity against SARS-COV2 EPI_ISL_1172022 infected in african green monkey Vero E6 cells assessed as inhibition of viral replication incubated for 48 hrs by RT-qPCR analysis. Conditions: Severe acute respiratory syndrome coronavirus 2, EPI_ISL_1172022, Vero C1008, 48 h. It counts as functional, organism-based.
Series [4] concerns A549. Description: Cytotoxicity against human A549 cells incubated for 24 hrs by AlamarBlue staining based analysis. It is filed as functional, cell-based. Conditions: A549, 24 h.
For another series, the system named is HT-29. The experiment in a line: Cytotoxicity against human HT-29 cells incubated for 24 hrs by AlamarBlue staining based analysis. It counts as functional, cell-based. Conditions: HT-29, 24 h.
Another series concerns RPMI-8226. Description: Cytotoxicity against human RPMI-8226 cells assessed as reduction in cell viability measured after 72 hrs by MTT assay. It is filed as functional, cell-based. Conditions: RPMI-8226, 72 h.
The next series concerns PC-3. Description: Cytotoxicity against human PC-3 cells incubated for 24 hrs by AlamarBlue staining based analysis. It is filed as functional, cell-based. Conditions: PC-3, 24 h.
The next series has as its system EBC-1. The experiment in a line: Cytotoxicity against human EBC-1 cells incubated for 24 hrs by AlamarBlue staining based analysis. It is filed as functional, cell-based. As to conditions: EBC-1, 24 h.
Another series has as its system MONO-MAC-6. Description: Cytotoxicity against human MONO-MAC-6 cells incubated for 24 hrs by AlamarBlue staining based analysis. It counts as functional, cell-based. Conditions: MONO-MAC-6, 24 h.
A short description of series [5]: Cytotoxicity against African green monkey Vero E6 cells incubated for 48 hrs by CCK-8 assay. It counts as toxicity, cell-based, Vero C1008. As to conditions: African green monkey (Chlorocebus sabaeus).
In another series the test system is ECa-109 cell line. Description: Antiproliferative activity against human Eca-109 cells measured after 2 days by CCK-8 method. As to conditions: ECa-109, 48 h. It counts as functional, cell-based.
For series [6], the system named is A549. The experiment in a line: Cytotoxicity against human A549 cells incubated for 24 hrs by MTS assay. It is filed as functional, cell-based. As to conditions: A549, 24 h.
Another series concerns TE-1. The experiment in a line: Antiproliferative activity against human TE-1 cells measured after 2 days by CCK-8 method. It is filed as functional, cell-based. Conditions: TE-1, 48 h.
For series [7], the system named is A549. The experiment in a line: Cytotoxicity against human A549 cells measured after 3 days by MTT assay. It counts as functional, cell-based. As to conditions: A549, 72 h.
Series [8] deals with SARS-CoV-2. Description: Antiviral activity against SARS-COV2 infected in african green monkey Vero E6 cells assessed as inhibition of viral replication incubated for 48 hrs by plague assay. It counts as functional, organism-based. Conditions: Severe acute respiratory syndrome coronavirus 2, Vero C1008, 48 h.

For orientation: IC50 means the concentration at which inhibition is half-maximal.

On to `COc1cc2cc3c(c(-c4ccc5c(c4)OCO5)c2cc1OC)C(=O)OC3`, for which the IC50 turned out to be 8.9 µM in the series on A2058; 11 µM in the series with NCI-H838; 21.6 µM in [1]; 16.8 µM in the series with HepG2; 18.5 µM with Calu-1; 0.18 µM with BGC-823. In addition, the concentration for half-maximal inhibition (IC50) was more than 100 µM in the series on SARS-CoV-2 [3]; 11.4 µM in the series on A549 [4]; 5.9 µM with HT-29; 0.17 µM in the series with RPMI-8226; 5.7 µM in the series on PC-3; 63.2 µM in the series with EBC-1. In addition, it took 2.5 µM to reach half-maximal inhibition in the series on MONO-MAC-6 (IC50). The “log(activity)” value with SARS-CoV-2 [2] is on record as more than 3.

For `COc1cc2cc(COC(=O)CC(=O)O)c(C(=O)O)c(-c3ccc4c(c3)OCO4)c2cc1OC`, the IC50 with A2058 was 25.1 µM; in the series with NCI-H838, more than 100 µM; in series [1], more than 100 µM; with HepG2, more than 100 µM; in the series with Calu-1 it was more than 100 µM; in the series on SARS-CoV-2 [3] it was more than 100 µM. For the same compound, the IC50 with A549 [4] was more than 100 µM; in the series on HT-29, more than 100 µM; in the series on PC-3 it was 32.8 µM; with EBC-1, 16 µM; in the series on MONO-MAC-6, 70.1 µM.

As for `COc1cc2cc(COC(=O)CC(=O)O)c(C(=O)O[C@@H]3O[C@H](COC(=O)CC(C)(O)CC(=O)O)[C@@H](O)[C@H](O)[C@H]3O)c(-c3ccc4c(c3)OCO4)c2cc1OC` (some centres not stated), the 50% inhibitory concentration (IC50) is 2.4 µM with A2058; 16 µM in the series on NCI-H838; more than 100 µM in [1]; more than 100 µM with HepG2; 67 µM with Calu-1; more than 100 µM in the series on SARS-CoV-2 [3]. Also, the IC50 with A549 [4] amounted to 26.3 µM; in the series on HT-29 it was 19.9 µM; with PC-3 it was 3.2 µM; in the series with EBC-1 it was 19.2 µM; in the series on MONO-MAC-6 it was 7.1 µM.

Regarding `CCN(CC)CCCC(C)Nc1ccnc2cc(Cl)ccc12` (configuration not stated) [CHLOROQUINE], the IC50 in the series with SARS-CoV-2 [3] is 50.2 µM.

For `COc1cc2c(O)c3c(c(-c4ccc5c(c4)OCO5)c2cc1OC)C(=O)OC3` [DIPHYLLIN], the IC50 in the series with A2058 is 2.6 µM; in the series with NCI-H838 it was 16 µM; in series [1], 26.1 µM; in the series on HepG2, 21.6 µM; in the series with ECa-109 cell line, 0.21 µM; in the series on Calu-1, 31.8 µM. The half-inhibitory concentration (IC50) was 2.02 µM in the series with A549 [6]; 0.28 µM in the series on TE-1; more than 100 µM in the series with SARS-CoV-2 [3]; 24 µM in the series with A549 [7]; 8.8 µM with A549 [4]; 19.5 µM in the series on HT-29. The IC50 with PC-3 was found to be 3.8 µM; in the series on EBC-1, 14.8 µM; in the series with MONO-MAC-6 it was 3.9 µM; with SARS-CoV-2 [8] it was 1.92 µM. The same compound registered a concentration for half-maximal inhibition (IC50) at 48 h in series [5] of more than 100 µM. In addition, the “log(activity)” value with SARS-CoV-2 [2] was more than 3.

As for `COc1cc([C@@H]2c3cc4c(cc3[C@@H](O[C@@H]3O[C@@H]5CO[C@@H](C)O[C@H]5[C@H](O)[C@H]3O)[C@H]3COC(=O)[C@H]23)OCO4)cc(OC)c1O` [ETOPOSIDE], the IC50 in the series on A2058 was 8.9 µM; with NCI-H838, more than 100 µM; in [1] it was 27 µM; in the series on HepG2, 20.9 µM; with Calu-1, more than 100 µM; with A549 [4] it was more than 100 µM. Besides, the 50% inhibitory concentration (IC50) with HT-29 amounted to 18.5 µM; with PC-3 it was 8 µM; with EBC-1, 15.7 µM; in the series with MONO-MAC-6, 2.2 µM.

For the compound `CC(C)C(=O)OC[C@H]1O[C@@H](n2cc/c(=N\O)[nH]c2=O)[C@H](O)[C@@H]1O` [MOLNUPIRAVIR], the half-inhibitory concentration (IC50) in the series on SARS-CoV-2 [3] was more than 100 µM.

In the case of `CC(=O)Oc1ccccc1C(=O)Nc1ncc([N+](=O)[O-])s1` [NITAZOXANIDE], the half-inhibitory concentration (IC50) with SARS-CoV-2 [3] is 82.7 µM.
